Calls of active or inactive are those of the source. The rule behind the calls is not given here.
Legend:
[1] = mammalian cell cytotoxicity, cytotoxicity control, set 3 (AID 504713); conditions: mammalian cell cytotoxicity, viability, CC50; at 100 µM (top of the series)
[2] = tested on: mammalian cell cytotoxicity, viability, CC50; test: as above

SMILES | viability [1] | CC50 [2] [µM]
CCOc1ccc2nc(NC(=O)COc3ccc(OC)cc3)sc2c1 | 102% (inactive) | 
CCOC(=O)c1c(C)[nH]c2ccccc12 | 85.7% (inactive) | 
N/C(=N\c1nc2ccccc2o1)NC(=O)c1ccccc1 |  | 19.3
O=C(COc1ccccc1Cl)Nc1nc2ccccc2s1 | 92.2% (inactive) | 
COc1ccc2nc(NC(=O)COc3ccccc3)sc2c1 | 109% (inactive) | 
CCOC(=O)COc1nc(-c2ccc(Cl)cc2)cc(-c2ccco2)c1C#N | 103% (inactive) | 
CCOc1ccc2[nH]c(C)cc2c1 | 93% (inactive) | 
CC(=O)c1c(C)n(-c2ccc(C)cc2)c2ccc(O)cc12 | 94.9% (inactive) | 
COc1ccc2[nH]c(C)cc2c1 | 103% (inactive) | 
CCOc1ccc2c(ccn2-c2ccccc2)c1 | 99.9% (inactive) | 
COc1ccc2nc(NC(=O)COc3ccccc3C(C)C)sc2c1 | 89.6% (inactive) | 
O=C(Cc1csc(-c2ccccc2F)n1)Nc1nc2ccccc2[nH]1 | 105% (inactive) | 
CCOc1ccc2nc(NC(=O)Cc3ccc(OC)cc3)sc2c1 | 100% (inactive) | 
CCc1ccc2nc(/N=C(\N)NC(=O)c3ccccc3)nc(C)c2c1 | 94.8% (inactive) | 
Cc1ccccc1OCC(=O)Nc1noc(-c2ccccc2)n1 | 100% (inactive) | 
CCOC(=O)c1cnc2cc(-c3ccc(C(C)(C)C)cc3)nn2c1N | 94.4% (inactive) | 
COc1cccc(-c2ccc(-c3noc(-c4ccccc4F)n3)c(OC)n2)c1 | 91.7% (inactive) | 
O=C(COc1ccc2c3c(c(=O)oc2c1)CCC3)Nc1nc2ccccc2[nH]1 | 97% (inactive) | 
CCOc1ccc2nc(NC(=O)C3(c4ccccc4)CCCC3)sc2c1 |  | 87.6
CC(C)(C)c1ccc(OCC(=O)Nc2nc3ccccc3s2)cc1 | 98.8% (inactive) | 
O=C(OC(C(=O)Nc1ccc(Cl)cc1C(F)(F)F)c1ccccc1)C1=COCCO1 (configuration not stated) | 84.8% (inactive) | 
COc1ccc2nc(NC(=O)COc3ccc(Cl)cc3)sc2c1 | 95.2% (inactive) | 
S=C(Nc1ccccc1)Nc1ccc(Cl)cn1 | 107% (inactive) | 
COc1ccc2nc(NC(=O)COc3ccc(C)cc3)sc2c1 |  | 87.4
Cc1cc2cc(F)ccc2n1-c1ccccc1 | 93.3% (inactive) | 
c1ccc(Nc2ncnc3c2oc2ccccc23)cc1 | 88% (inactive) | 

SMILES | viability [1] | CC50 [2] [µM]
CCOc1ccc2[nH]ccc2c1 | 97.9% (inactive) | 
CC(=O)Nc1ccc2nc(NC(=O)Cc3ccccc3)sc2c1 | 95.1% (inactive) | 
Cc1ccc(OC(C)C(=O)Nc2ncccn2)c(C)c1 (configuration not stated) | 96.2% (inactive) | 
Cc1ccc(OCC(=O)Nc2nc3ccc(F)cc3s2)cc1 | 103% (inactive) | 
Cc1ccccc1OCC(=O)Nc1ncn[nH]1 | 95.4% (inactive) | 
COC(=O)c1c(C)[nH]c2ccc(Cl)cc12 | 80% (inactive) | 
CCOc1ccc2c(c1)c(C(C)=O)c(C)n2Cc1ccco1 | 97.1% (inactive) | 
CCC(CC)c1nnc(NC(=O)c2ccc(N3CCCCC3)c([N+](=O)[O-])c2)s1 | 96.7% (inactive) | 
Cc1ccc(OCC(=O)Nc2cccc3ncccc23)c(C)c1 | 92.8% (inactive) | 
N/C(=N\c1nc2ccccc2o1)NC(=O)c1ccc(F)cc1 |  | 57.3
N/C(=N\c1nc2cc(Cl)ccc2o1)NC(=O)c1ccccc1 |  | 43.2
COC(=O)c1ccc2nc(NC(=O)COc3ccccc3)sc2c1 | 99.9% (inactive) | 
O=C(COc1ccccc1)Nc1nc2ccccc2s1 | 104% (inactive) | 
O=C(COC(=O)C1CC1)c1c[nH]c2ccccc12 | 98.9% (inactive) | 
CCOc1ccc(NC(=O)COc2ccc(C)cc2C)cc1 | 97.5% (inactive) | 
CC(=O)c1c(C)n(-c2ccccc2)c2ccccc12 | 98.2% (inactive) | 
Cc1ccc(OCC(=O)Nc2cccc3ccccc23)c(C)c1 | 93.3% (inactive) | 
CCOc1ccc2c(c1)cc(C)n2-c1ccccc1 | 95.5% (inactive) | 
Cc1ccc2sc(NC(=O)COc3ccccc3)nc2c1C |  | 36.6
CC(=O)Nc1ccc2nc(NC(=O)COc3ccccc3)sc2c1 | 96.2% (inactive) | 
O=C(Cc1ccccc1Cl)Nc1nc2ccccc2[nH]1 | 100% (inactive) | 
COC(=O)c1c(C)[nH]c2ccccc12 | 82.6% (inactive) | 
Cc1ccc(C(C)C)c(OCC(=O)Nc2nc3ccccc3s2)c1 | 92% (inactive) | 
COc1ccc(Cl)cc1C(=O)Nc1nc2ccccc2[nH]1 |  | 60.5
Cc1ccc(OCC(=O)Nc2nc3c(Cl)cccc3s2)cc1 | 108% (inactive) | 
c1ccc(OCc2nnc(-c3ccccc3)o2)cc1 | 95.4% (inactive) | 
